Like-named read-outs stand apart in the source and are kept apart here. Numbered stars: 1 amine (or outer) side, 2 acyl side, 3 side chain; on linkers, the order of the positions; unused ones are H or OH. Bridge positions count the residues as written; N and C are the ends. Peptide text beside a SMILES is read from it. * marks the point of attachment. X1 = O=C(O)CN1CCN(CC(=O)O)CCN(CC(=O)N2CCN(Cc3cc(C[*:1])cc(C[*:2])c3)CC2)CCN(CC(=O)O)CC1; Hexanoyl = CCCCCC(=O)*
How the values were obtained:
Acetylcholinesterase (h) = Acetylcholinesterase (h) (Homo sapiens, UniProt P22303); test: biochemical; details: read-out: % Inhibition of Specific Binding
Caspase-8 = Caspase-8 (Homo sapiens, UniProt Q14790); test: biochemical; details: read-out: Percentage inhibition (%)
Ataxin3 = Ataxin3 (Homo sapiens, UniProt P54252); test: biochemical; details: read-out: Percentage inhibition (%)
dopamine transporter (h) = dopamine transporter (h) (Homo sapiens, UniProt Q01959); test: biochemical; details: read-out: % Inhibition of Specific Binding
A2A (h) = A2A (h) (Homo sapiens, UniProt P29274); test: biochemical; details: read-out: % Inhibition of Specific Binding
PDE4D2 (h) = PDE4D2 (h) (Homo sapiens, UniProt Q08499); test: biochemical; details: read-out: % Inhibition of Specific Binding
Cathepsin S = Cathepsin S (Homo sapiens, UniProt P25774); test: biochemical; details: read-out: Percentage inhibition (%)
[1] = molecular target: T1, Ubiquitin carboxyl-terminal hydrolase 2 (Homo sapiens, UniProt O75604); test: biochemical; details: read-out: Percentage inhibition (%)
T1 sequence (O75604 1-605): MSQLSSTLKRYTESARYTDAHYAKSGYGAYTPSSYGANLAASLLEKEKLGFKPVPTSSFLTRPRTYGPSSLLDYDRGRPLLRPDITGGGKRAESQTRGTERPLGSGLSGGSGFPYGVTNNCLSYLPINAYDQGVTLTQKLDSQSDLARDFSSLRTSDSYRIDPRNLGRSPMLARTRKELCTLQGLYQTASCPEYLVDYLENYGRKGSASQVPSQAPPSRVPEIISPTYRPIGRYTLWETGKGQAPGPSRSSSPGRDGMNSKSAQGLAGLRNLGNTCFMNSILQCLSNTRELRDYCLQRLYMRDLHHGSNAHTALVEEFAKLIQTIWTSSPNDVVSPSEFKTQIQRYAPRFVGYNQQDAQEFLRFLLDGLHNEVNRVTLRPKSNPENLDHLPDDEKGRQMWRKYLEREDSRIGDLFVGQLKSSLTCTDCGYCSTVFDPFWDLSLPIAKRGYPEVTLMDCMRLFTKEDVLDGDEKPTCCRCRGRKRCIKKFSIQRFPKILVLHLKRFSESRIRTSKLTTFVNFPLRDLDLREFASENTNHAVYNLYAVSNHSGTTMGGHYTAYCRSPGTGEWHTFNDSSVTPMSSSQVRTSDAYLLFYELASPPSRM

Cathepsin B = Cathepsin B (Homo sapiens, UniProt P07858); test: biochemical; details: read-out: Percentage inhibition (%)
COX1(h) = COX1(h) (Homo sapiens, UniProt P23219); test: biochemical; details: read-out: % Inhibition of Specific Binding
DPP7 = DPP7 (Homo sapiens, UniProt Q9UHL4); test: biochemical; details: read-out: Percentage inhibition (%)
[2] = test system: serine protease NS3 (a.a. 3-181) from Hepatitis C virus genotype 1b (mutant R155K)
Lck kinase (h) = Lck kinase (h) (Homo sapiens, UniProt P06239); test: biochemical; details: read-out: % Inhibition of Specific Binding
Cathepsin V = Cathepsin V (Homo sapiens, UniProt O60911); test: biochemical; details: read-out: Percentage inhibition (%)
[3] = molecular target: T2, Ubiquitin carboxyl-terminal hydrolase 8 (Homo sapiens, UniProt P40818); test: biochemical; details: read-out: Percentage inhibition (%)
T2 sequence (P40818 1-1118): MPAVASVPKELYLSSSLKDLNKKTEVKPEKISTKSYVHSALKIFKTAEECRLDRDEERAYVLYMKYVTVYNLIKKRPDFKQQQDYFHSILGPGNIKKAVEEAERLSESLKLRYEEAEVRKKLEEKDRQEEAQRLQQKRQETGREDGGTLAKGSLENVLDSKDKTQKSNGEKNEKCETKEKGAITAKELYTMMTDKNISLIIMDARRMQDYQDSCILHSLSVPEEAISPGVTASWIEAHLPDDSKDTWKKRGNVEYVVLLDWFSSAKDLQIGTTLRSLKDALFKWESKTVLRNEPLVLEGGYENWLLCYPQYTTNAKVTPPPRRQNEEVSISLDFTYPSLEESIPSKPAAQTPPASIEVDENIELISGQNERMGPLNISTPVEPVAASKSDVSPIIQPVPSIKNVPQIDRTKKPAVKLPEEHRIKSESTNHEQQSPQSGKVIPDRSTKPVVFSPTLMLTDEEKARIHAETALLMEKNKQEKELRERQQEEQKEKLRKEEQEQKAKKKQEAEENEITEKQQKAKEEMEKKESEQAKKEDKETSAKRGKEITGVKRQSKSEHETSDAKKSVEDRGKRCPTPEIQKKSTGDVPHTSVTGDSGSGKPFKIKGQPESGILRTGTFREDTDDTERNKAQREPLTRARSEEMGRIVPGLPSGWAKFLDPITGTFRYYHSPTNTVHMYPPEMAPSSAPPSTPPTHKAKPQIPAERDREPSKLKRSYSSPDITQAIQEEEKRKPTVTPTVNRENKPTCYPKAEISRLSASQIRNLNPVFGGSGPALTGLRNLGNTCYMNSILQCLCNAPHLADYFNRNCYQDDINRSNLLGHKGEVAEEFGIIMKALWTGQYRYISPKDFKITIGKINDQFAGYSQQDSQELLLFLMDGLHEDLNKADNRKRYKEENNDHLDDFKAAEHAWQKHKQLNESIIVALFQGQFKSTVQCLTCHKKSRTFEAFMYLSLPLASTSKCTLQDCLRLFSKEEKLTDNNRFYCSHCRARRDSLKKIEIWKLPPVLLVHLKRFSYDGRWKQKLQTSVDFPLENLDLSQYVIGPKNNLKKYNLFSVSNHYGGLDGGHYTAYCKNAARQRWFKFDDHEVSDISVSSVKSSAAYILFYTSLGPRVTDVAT

H1 (h) = H1 (h) (Homo sapiens, UniProt P35367); test: biochemical; details: read-out: % Inhibition of Specific Binding
beta 1 (h) = beta 1 (h) (Homo sapiens, UniProt P08588); test: biochemical; details: read-out: % Inhibition of Specific Binding
Chain of beta 1 (h) (P08588 whole entry): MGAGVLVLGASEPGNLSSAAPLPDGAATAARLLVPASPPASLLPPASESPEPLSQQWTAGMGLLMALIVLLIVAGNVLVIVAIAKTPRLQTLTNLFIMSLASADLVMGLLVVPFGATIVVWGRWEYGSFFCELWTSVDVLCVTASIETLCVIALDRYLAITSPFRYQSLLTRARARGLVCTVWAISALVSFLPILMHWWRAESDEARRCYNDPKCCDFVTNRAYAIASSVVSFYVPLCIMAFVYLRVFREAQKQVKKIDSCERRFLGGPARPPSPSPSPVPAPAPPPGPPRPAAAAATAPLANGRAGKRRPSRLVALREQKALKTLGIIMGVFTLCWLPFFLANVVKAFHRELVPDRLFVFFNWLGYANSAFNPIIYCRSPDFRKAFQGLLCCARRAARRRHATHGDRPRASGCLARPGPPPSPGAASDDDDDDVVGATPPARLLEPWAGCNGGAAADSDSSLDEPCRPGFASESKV

Chain of Caspase-8 (Q14790 217-374 limits assumed, species assumed): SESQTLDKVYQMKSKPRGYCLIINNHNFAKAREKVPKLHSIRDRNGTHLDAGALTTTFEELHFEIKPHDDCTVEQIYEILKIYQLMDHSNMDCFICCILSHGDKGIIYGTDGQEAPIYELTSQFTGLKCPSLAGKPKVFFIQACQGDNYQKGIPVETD
Chain of Caspase-8 (Q14790 385-479 limits assumed, species assumed): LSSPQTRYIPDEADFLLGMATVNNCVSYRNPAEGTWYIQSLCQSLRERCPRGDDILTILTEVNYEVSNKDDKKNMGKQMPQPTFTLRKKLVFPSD
Chain of Ataxin3 (P54252 whole entry, species assumed): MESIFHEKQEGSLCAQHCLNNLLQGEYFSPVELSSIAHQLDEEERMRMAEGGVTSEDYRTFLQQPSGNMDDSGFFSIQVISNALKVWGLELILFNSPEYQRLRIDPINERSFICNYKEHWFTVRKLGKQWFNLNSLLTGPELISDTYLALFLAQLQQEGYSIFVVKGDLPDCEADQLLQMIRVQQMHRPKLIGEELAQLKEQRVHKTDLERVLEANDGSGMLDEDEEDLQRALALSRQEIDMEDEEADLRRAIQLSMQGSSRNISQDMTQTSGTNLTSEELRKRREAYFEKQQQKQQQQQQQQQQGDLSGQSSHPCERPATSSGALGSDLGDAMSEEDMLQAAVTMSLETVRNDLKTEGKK
Chain of Cathepsin V (O60911 114-334, species assumed): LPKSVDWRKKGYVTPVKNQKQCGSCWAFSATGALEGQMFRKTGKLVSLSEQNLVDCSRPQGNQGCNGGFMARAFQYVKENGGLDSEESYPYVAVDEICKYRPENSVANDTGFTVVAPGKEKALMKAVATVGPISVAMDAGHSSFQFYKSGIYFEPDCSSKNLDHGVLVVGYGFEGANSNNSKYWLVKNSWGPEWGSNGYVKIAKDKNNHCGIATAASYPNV
Chain of Cathepsin S (P25774 115-331): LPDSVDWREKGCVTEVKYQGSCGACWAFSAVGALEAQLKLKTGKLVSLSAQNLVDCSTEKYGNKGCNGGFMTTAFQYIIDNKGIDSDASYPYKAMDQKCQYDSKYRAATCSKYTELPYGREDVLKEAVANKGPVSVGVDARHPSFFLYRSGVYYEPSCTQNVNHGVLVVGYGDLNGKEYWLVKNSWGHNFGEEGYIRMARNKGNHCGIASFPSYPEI
Chain of A2A (h) (P29274 whole entry): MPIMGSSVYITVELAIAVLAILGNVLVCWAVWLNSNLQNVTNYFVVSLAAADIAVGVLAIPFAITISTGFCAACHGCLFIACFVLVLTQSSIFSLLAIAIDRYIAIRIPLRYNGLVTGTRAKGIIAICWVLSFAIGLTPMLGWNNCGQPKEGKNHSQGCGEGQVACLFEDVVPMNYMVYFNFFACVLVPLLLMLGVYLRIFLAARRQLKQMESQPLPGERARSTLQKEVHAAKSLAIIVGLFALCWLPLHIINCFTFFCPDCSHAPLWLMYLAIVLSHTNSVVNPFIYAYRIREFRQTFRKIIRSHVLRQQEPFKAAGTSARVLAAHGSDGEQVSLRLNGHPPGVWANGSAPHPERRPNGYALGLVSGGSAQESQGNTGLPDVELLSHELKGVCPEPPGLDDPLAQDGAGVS
Chain of dopamine transporter (h) (Q01959 whole entry): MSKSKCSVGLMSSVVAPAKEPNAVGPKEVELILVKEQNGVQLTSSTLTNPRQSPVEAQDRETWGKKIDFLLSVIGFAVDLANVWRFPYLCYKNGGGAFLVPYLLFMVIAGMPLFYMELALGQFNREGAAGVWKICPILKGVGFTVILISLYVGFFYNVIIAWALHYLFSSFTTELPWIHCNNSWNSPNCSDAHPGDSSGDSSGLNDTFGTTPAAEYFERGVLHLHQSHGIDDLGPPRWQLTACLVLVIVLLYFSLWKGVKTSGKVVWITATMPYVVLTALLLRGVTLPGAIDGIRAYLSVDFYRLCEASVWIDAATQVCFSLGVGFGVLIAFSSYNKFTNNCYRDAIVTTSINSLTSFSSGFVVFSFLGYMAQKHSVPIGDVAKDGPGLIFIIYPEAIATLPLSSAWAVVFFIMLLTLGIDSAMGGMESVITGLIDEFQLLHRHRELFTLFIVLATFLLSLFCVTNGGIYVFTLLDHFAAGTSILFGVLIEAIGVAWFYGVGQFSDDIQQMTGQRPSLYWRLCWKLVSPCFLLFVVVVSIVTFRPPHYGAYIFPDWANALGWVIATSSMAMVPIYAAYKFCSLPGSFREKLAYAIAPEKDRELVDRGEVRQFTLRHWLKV
Chain of COX1(h) (P23219 24-599): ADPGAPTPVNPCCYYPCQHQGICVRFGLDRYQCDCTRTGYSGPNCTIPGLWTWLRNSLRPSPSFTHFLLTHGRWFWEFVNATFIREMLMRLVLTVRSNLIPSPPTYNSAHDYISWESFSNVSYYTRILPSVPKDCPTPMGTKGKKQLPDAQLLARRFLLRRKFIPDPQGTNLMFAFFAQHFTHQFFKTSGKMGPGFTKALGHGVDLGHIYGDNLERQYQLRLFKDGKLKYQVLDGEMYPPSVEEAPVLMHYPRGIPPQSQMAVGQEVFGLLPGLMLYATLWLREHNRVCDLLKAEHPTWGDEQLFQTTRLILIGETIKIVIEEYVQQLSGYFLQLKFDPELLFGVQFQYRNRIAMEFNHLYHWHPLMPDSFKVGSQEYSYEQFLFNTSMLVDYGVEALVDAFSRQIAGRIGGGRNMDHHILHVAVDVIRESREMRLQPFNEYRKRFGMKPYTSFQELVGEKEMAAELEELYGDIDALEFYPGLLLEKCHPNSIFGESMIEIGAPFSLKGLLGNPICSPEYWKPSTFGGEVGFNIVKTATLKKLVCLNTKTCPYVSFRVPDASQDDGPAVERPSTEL
Chain of Acetylcholinesterase (h) (P22303 32-614): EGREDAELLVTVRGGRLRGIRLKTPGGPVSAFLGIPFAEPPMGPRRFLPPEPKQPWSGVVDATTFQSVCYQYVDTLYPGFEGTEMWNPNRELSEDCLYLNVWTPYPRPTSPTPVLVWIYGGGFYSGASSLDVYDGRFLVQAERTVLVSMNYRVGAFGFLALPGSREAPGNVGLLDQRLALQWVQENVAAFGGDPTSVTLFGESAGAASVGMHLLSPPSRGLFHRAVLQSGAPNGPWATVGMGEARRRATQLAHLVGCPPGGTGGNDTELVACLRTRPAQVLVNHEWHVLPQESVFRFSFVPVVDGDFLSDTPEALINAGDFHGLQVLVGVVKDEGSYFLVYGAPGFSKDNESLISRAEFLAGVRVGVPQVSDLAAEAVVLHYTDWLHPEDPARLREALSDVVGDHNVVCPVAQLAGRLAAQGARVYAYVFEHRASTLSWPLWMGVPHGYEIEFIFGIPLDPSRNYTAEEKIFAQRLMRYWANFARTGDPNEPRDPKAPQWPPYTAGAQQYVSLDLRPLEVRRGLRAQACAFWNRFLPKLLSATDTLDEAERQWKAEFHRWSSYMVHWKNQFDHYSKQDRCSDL
Chain of Lck kinase (h) (P06239 whole entry): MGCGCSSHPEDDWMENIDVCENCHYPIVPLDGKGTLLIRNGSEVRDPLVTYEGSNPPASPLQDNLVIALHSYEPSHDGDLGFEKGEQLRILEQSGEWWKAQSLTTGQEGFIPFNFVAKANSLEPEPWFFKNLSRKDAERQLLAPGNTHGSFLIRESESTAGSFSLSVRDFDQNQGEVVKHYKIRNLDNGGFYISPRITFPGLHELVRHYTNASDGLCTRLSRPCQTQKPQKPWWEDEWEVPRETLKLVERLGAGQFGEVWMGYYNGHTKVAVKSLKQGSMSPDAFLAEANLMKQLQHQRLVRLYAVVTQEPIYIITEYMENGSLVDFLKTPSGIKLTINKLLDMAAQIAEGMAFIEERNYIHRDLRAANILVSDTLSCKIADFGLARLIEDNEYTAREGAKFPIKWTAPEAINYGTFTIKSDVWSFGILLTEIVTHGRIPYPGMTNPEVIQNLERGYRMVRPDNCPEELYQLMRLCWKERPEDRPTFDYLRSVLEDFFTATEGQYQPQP
Chain of H1 (h) (P35367 whole entry): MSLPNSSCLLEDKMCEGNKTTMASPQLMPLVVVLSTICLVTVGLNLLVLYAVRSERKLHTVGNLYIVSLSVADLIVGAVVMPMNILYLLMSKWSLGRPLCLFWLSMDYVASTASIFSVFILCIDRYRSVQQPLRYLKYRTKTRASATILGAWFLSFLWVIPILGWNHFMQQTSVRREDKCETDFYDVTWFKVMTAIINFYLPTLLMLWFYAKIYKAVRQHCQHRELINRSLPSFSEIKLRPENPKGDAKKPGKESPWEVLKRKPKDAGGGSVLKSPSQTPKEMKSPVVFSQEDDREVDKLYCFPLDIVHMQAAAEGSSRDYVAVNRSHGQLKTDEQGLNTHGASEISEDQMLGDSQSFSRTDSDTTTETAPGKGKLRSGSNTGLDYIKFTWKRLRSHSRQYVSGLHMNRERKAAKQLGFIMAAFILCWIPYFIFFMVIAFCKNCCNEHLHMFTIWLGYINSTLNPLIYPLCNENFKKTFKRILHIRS

| SMILES | inhibition at 10 µM (Acetylcholinesterase (h)) | inhibition at 1 µM (Caspase-8) | inhibition at 10 µM (Caspase-8) | inhibition at 1 µM (Ataxin3) | inhibition at 10 µM (Ataxin3) | inhibition at 10 µM (dopamine transporter (h)) | inhibition at 10 µM (A2A (h)) | inhibition at 10 µM (PDE4D2 (h)) | inhibition at 1 µM (Cathepsin S) | inhibition at 10 µM (Cathepsin S) | inhibition at 1 µM [1] | inhibition at 10 µM [1] | inhibition at 1 µM (Cathepsin B) | inhibition at 10 µM (Cathepsin B) | inhibition at 10 µM (COX1(h)) | inhibition at 1 µM (DPP7) | inhibition at 10 µM (DPP7) | Percentage inhibition (%) ([2]; 1 μM) | Percentage inhibition (%) ([2]; 10 μM) | inhibition at 10 µM (Lck kinase (h)) | also measured |
| --- | --- | --- | --- | --- | --- | --- | --- | --- | --- | --- | --- | --- | --- | --- | --- | --- | --- | --- | --- | --- | --- |
| CCCCCC(=O)N[C@H]1CSCc2cc(CSCCNC(=O)CN3CCN(CC(=O)O)CCN(CC(=O)O)CCN(CC(=O)O)CC3)cc(c2)CSC[C@@H](C(=O)O)NC(=O)[C@H](Cc2ccccc2)NC(=O)[C@H](CCC(N)=O)NC(=O)[C@H]([C@@H](C)O)NC(=O)[C@@H]2CCCN2C(=O)[C@@H]2CCCN2C1=O [Compound 3BP-3554, Hex-[Cys(tMeBn(DOTA-AET))-Pro-Pro-Thr-Gln-Phe-Cys]-OH] | 1% | 0% | -3% | 2% | -1% | 7% | -16% | -4% | -10% | -23% | 0% | -1% | 1% | 2% | 8% | -1% | -7% | −1% | 0% | -4% | inhibition at 1 µM (Cathepsin V): -1%; inhibition at 10 µM (Cathepsin V): -1%; inhibition at 1 µM [3]: 2%; inhibition at 10 µM [3]: 1%; inhibition at 10 µM (H1 (h)): 4%; inhibition at 10 µM (beta 1 (h)): -13% |
| CCCCCC(=O)N[C@H]1CSCc2cc(cc(CN3CCN(C(=O)CN4CCN(CC(=O)O)CCN(CC(=O)O)CCN(CC(=O)O)CC4)CC3)c2)CSC[C@@H](C(=O)N[C@@H](CC(=O)O)C(N)=O)NC(=O)[C@H](Cc2ccccc2)NC(=O)[C@H](CCC(N)=O)NC(=O)[C@H]([C@@H](C)O)NC(=O)[C@@H]2CCCN2C(=O)[C@@H]2CCCN2C1=O [Compound 3BP-3407, Hex-[Cys(tMeBn(DOTA-PP))-Pro-Pro-Thr-Gln-Phe-Cys]-Asp-NH2] (Hexanoyl-CPPTQFCD-NH2; linker 1-7 via X1) | -6% | 0% | 0% | 1% | 10% | 12% | -4% | -5% | 3% | 18% | 3% | 7% | 26% | 36% | 10% | 2% | -3% | −2% | 5% | 10% | inhibition at 1 µM (Cathepsin V): 1%; inhibition at 10 µM (Cathepsin V): -18%; inhibition at 1 µM [3]: -3%; inhibition at 10 µM [3]: 6%; inhibition at 10 µM (H1 (h)): 11%; inhibition at 10 µM (beta 1 (h)): 4% |
